The target in series [1] is T1, Amine oxidase [flavin-containing] B (Rattus norvegicus, UniProt P19643).
T1 sequence (P19643 whole entry): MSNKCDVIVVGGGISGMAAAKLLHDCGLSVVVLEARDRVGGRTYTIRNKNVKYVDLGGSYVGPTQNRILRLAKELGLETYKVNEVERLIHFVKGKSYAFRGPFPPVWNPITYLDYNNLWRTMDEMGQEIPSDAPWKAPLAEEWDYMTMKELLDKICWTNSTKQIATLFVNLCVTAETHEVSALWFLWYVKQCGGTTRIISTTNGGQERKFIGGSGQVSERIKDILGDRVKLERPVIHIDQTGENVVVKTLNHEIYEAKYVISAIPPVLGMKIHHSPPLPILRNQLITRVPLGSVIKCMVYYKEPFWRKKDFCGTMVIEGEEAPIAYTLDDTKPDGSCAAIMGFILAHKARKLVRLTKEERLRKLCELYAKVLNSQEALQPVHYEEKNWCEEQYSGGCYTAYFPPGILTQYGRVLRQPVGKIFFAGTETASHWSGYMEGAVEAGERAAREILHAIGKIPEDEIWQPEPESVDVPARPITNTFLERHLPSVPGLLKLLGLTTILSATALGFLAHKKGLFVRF
The experiment in a line: Inhibition of rat brain MAO-B using [14C]-phenylethylamine as substrate preincubated for 60 mins followed by substrate addition and measured after 20 mins by liquid scintillation counting method.

Series [2] addresses T2, Amine oxidase [flavin-containing] A (Homo sapiens, UniProt P21397).
T2 sequence (P21397 whole entry): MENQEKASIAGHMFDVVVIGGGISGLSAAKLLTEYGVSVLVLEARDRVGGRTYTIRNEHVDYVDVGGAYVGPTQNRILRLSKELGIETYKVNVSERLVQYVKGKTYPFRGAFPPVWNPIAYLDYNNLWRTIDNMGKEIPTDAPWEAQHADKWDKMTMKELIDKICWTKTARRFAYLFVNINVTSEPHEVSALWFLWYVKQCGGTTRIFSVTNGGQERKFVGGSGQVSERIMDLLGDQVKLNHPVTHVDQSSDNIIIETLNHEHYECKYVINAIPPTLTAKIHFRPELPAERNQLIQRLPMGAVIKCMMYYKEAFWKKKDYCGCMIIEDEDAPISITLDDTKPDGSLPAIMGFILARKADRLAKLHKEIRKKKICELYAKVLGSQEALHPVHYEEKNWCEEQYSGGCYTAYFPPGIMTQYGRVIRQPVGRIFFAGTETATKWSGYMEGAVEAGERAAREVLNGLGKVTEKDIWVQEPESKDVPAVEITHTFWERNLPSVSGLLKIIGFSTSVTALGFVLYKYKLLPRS
Briefly: Inhibition of human recombinant MAO-A using kynuramine as substrate preincubated for 30 mins followed by substrate addition by discontinuous fluorimetric analysis.

Series [3] has as its target T2, Amine oxidase [flavin-containing] A. The experiment in a line: Inhibition of human recombinant MAO-A using kynuramine as substrate preincubated for 60 mins followed by substrate addition by discontinuous fluorimetric analysis.
The target of a further series is D(3) dopamine receptor (Homo sapiens, UniProt P35462). Briefly: Displacement of [3H] spiperone from human D3 dopamine receptor. A general note: In a radioligand displacement assay an active substance lowers the binding of a labelled ligand.
Chain of D(3) dopamine receptor (P35462 whole entry): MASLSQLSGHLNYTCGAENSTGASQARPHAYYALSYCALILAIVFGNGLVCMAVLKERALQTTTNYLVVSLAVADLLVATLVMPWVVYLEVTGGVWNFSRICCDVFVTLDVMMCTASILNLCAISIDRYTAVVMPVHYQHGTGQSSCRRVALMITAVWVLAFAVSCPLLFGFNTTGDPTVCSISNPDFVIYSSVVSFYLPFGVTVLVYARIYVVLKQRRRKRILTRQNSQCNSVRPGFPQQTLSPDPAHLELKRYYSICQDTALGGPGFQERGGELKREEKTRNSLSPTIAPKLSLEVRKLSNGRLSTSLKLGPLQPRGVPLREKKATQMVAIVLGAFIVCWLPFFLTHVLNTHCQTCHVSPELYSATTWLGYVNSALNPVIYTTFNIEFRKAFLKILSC
The target of series [4] is T3, Amine oxidase [flavin-containing] B (Homo sapiens, UniProt P27338).
T3 sequence (P27338 whole entry): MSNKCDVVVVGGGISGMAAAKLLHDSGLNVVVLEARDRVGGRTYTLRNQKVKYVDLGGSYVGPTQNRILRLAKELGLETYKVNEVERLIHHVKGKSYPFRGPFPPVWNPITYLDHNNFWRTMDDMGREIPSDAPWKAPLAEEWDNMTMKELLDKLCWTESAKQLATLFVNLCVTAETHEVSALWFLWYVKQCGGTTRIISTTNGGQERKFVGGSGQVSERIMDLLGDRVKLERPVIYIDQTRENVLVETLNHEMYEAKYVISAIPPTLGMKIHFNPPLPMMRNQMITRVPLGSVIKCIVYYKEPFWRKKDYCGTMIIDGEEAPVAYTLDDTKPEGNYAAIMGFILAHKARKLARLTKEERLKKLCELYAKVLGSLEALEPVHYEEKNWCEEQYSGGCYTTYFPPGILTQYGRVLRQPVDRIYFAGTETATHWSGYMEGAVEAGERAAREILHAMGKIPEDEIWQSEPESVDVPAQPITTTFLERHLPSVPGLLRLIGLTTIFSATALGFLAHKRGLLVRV
Briefly: Inhibition of human recombinant MAO-B using kynuramine as substrate preincubated for 30 mins followed by substrate addition by discontinuous fluorimetric analysis.

The species named for series [5] is Homo sapiens. The experiment in a line: Selectivity index, ratio of IC50 for human recombinant MAO-A to IC50 for human recombinant MAO-B using kynuramine as substrate.
In series [6] the target is T3, Amine oxidase [flavin-containing] B. Briefly: Inhibition of human recombinant MAO-B using kynuramine as substrate by discontinuous fluorimetric analysis.
The target of a further series is Histamine H1 receptor (Homo sapiens, UniProt P35367). Briefly: Displacement of [3H] pyrilamine from human H1 histamine receptor.
Chain of Histamine H1 receptor (P35367 whole entry): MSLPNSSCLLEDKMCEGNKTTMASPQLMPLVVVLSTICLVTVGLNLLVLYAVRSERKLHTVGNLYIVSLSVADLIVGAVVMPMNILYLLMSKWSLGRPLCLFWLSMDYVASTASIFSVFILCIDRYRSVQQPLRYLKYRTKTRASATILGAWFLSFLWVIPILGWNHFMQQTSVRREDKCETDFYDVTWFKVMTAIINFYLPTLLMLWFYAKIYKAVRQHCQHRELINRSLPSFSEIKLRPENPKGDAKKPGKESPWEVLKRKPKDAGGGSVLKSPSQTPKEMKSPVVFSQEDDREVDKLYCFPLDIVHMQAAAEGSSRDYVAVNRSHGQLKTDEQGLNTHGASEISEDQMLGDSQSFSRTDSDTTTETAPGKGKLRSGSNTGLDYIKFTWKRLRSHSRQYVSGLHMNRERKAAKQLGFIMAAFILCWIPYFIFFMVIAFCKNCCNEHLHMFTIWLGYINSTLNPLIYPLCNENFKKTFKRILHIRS
Series [7] in a line: Cytotoxicity against human SH-SY5Y cells assessed as cell viability at 10 uM measured after 24 hrs by resazurin dye based fluorescence assay relative to control. Particulars: read-out: Activity. A general note: Alamar Blue is a resazurin reagent that responds to reducing activity.
The target of another series is Histamine H4 receptor (Homo sapiens, UniProt Q9H3N8). Briefly: Displacement of [3H] histamine from human H4 histamine receptor.
Chain of Histamine H4 receptor (Q9H3N8 whole entry): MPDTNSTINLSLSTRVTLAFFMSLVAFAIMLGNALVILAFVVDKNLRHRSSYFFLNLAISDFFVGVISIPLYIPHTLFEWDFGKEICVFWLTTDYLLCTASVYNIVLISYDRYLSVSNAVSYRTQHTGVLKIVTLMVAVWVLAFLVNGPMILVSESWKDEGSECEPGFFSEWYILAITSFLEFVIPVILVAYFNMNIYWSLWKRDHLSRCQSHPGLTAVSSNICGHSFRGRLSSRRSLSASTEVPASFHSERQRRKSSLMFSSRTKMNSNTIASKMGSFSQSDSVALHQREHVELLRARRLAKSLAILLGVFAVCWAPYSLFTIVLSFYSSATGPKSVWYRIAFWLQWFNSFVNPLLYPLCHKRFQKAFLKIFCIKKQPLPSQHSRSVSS
The species entered for series [8] is Homo sapiens. The experiment in a line: Selectivity index, ratio of IC50 for human recombinant MAO-A using kynuramine as substrate preincubated for 60 mins followed by substrate addition to IC50 for human recombinant MAO-B using kynuramine as substrate preincubated for 60 mins followed by substrate addition.
Series [9] deals with T2, Amine oxidase [flavin-containing] A. Briefly: Inhibition of human recombinant MAO-A using kynuramine as substrate by discontinuous fluorimetric analysis.
The species named for series [10] is Homo sapiens. The experiment in a line: Selectivity index, ratio of IC50 for human recombinant MAO-A using kynuramine as substrate preincubated for 30 mins followed by substrate addition to IC50 for human recombinant MAO-B using kynuramine as substrate preincubated for 30 mins followed by substrate addition.
In series [11] the target is Cholinesterase (Equus caballus) (UniProt P81908). The experiment in a line: Inhibition of equine serum BuChE at 10 uM using acetylthiocholine iodide as substrate preincubated for 30 mins followed by substrate addition and measured every 40 secs for 30 mins by Ellman's method relative to control. (Ellman's reagent forms a yellow product with free thiols.)
Chain of Cholinesterase (Equus caballus) (P81908 whole entry): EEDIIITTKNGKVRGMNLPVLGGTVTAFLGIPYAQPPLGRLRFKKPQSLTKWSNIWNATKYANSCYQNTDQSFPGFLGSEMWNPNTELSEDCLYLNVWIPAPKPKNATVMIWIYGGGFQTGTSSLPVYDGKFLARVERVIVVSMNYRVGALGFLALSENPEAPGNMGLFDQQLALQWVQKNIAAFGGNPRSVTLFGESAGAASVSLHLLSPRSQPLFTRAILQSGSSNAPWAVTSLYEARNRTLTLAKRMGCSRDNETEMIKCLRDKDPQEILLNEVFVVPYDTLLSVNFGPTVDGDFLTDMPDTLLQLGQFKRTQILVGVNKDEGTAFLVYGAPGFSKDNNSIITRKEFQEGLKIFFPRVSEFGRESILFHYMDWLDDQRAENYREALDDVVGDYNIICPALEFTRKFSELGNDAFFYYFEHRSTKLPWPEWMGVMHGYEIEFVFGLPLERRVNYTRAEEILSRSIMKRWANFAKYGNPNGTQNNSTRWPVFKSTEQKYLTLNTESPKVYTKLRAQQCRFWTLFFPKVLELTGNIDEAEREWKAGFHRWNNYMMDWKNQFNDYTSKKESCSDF
For series [12], the target named is T3, Amine oxidase [flavin-containing] B. Briefly: Inhibition of human recombinant MAO-B using kynuramine as substrate preincubated for 60 mins followed by substrate addition by discontinuous fluorimetric analysis.
Series [13] has the same target. Briefly: Irreversible inhibition of human recombinant MAO-B assessed as reduction in enzyme activity at 10 times IC50 using kynuramine as substrate preincubated with compound followed by substrate addition by discontinuous fluorimetric analysis. Particulars: TDE = time-dependent effect.
For a further series, the target named is D(2) dopamine receptor (Homo sapiens, UniProt P14416). The experiment in a line: Displacement of [3H] spiperone from human D2 dopamine receptor.
Chain of D(2) dopamine receptor (P14416 whole entry): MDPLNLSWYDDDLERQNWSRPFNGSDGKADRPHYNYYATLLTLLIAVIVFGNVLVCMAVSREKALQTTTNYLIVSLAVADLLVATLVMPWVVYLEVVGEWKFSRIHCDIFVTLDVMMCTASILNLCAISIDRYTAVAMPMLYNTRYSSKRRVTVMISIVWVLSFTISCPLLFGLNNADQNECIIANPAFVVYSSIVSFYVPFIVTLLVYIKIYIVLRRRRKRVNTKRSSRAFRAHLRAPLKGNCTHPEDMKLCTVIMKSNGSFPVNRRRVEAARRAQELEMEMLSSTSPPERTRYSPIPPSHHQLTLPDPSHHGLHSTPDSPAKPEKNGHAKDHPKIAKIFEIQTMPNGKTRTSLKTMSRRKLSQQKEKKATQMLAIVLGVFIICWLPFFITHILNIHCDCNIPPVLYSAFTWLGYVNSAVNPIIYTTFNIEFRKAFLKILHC
Series [14] is described as follows: Cytotoxicity against human SH-SY5Y cells assessed as cell viability at 1 uM measured after 24 hrs by resazurin dye based fluorescence assay relative to control. Particulars: read-out: Activity.
Series [15] has as its target Acetylcholinesterase (Electrophorus electricus) (UniProt O42275). The experiment in a line: Inhibition of electric eel AChE at 10 uM using acetylthiocholine iodide as substrate preincubated for 30 mins followed by substrate addition and measured every 40 secs for 30 mins by Ellman's method relative to control.
For a further series, the target named is Histamine H3 receptor (Homo sapiens, UniProt Q9Y5N1). Briefly: Displacement of [3H] N-alpha methylhistamine from human recombinant H3 receptor expressed in HEK293 cells incubated for 90 min. The format is cell-based.
Chain of Histamine H3 receptor (Q9Y5N1 whole entry): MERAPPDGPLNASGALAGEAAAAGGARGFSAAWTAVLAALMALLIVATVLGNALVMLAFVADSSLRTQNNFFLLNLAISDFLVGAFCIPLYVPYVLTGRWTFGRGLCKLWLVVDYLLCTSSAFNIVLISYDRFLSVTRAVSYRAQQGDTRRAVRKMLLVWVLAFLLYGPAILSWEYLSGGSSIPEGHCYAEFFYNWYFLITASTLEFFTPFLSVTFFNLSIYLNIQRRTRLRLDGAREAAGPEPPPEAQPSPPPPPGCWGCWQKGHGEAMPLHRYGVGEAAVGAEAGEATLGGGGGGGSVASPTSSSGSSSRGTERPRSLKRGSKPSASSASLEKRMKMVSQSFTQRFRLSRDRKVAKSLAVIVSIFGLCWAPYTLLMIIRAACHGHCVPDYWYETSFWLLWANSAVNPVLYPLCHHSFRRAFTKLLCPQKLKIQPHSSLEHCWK
Series [16] is described as follows: Cytotoxicity against human SH-SY5Y cells assessed as cell viability at 1 mM and measured after 24 hrs by resazurin dye based fluorescence assay relative to control. The settings on record: read-out: Activity.

The results in this text go back to ChEMBL document CHEMBL4396932, “Rasagiline derivatives combined with histamine H3 receptor properties” (Bioorg Med Chem Lett, 2019).

Chain of Acetylcholinesterase (Electrophorus electricus) (O42275 24-633 limits assumed): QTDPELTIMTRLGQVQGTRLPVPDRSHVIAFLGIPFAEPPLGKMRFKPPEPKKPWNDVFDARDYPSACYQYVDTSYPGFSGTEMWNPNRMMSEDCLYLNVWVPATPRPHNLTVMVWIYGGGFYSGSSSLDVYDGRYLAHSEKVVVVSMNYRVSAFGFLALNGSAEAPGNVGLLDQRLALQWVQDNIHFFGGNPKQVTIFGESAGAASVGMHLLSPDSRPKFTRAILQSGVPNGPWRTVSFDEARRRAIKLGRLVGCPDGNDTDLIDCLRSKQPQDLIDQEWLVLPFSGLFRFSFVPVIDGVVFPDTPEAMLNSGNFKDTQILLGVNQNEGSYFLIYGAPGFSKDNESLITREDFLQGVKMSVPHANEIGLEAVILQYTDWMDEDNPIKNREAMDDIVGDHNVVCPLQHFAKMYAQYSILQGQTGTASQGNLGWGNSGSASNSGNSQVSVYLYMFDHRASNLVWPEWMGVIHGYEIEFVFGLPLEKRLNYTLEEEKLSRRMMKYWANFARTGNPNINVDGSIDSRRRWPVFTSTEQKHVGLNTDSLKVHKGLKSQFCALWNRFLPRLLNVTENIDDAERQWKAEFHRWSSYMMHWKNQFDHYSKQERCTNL

`C#CCN[C@@H]1CCc2ccc(OC(=O)N(C)CC)cc21` [LADOSTIGIL] returned a half-maximal inhibitory concentration (IC50) in series [1] greater than 1000 µM.

As to `C#CCNC1CCc2cc(OCCCN3CCCCC3)ccc21` (centres undefined), the half-maximal inhibitory concentration (IC50) in [2] was greater than 100 µM; in series [3], greater than 10 µM; in series [4] it was 1.05 µM; in series [6], 0.991 µM; in series [9], greater than 100 µM; in [12], 0.256 µM. Moreover, the Ki is greater than 10 µM at D(3) dopamine receptor; greater than 10 µM at Histamine H1 receptor; greater than 100 µM on Histamine H4 receptor; greater than 10 µM on D(2) dopamine receptor; 0.0026 µM on Histamine H3 receptor (read-out: Ki); less than 0.01 µM on Histamine H3 receptor (read-out: pKi (converted)). Further, the figures for the Ratio IC50 in the series listed under Homo sapiens [5], in the series filed under Homo sapiens [8] and in the series filed under Homo sapiens [10] were greater than 100, greater than 39 and greater than 95, respectively. In addition, in [7], the viability at 24 h, 10 µM came out at 95.6%. For the same compound, the inhibition in series [11] worked out at 32%; in [15] it was 57%. The “inhibition (INH)” value in [13] is given as “Tde”. Also, in series [14], the viability at 24 h, 1 µM came to 89.7%.

Consider `C#CCNC1CCc2ccc(OCCCN3CCCCC3)cc21` (centres undefined), for which the IC50 in series [3] was greater than 50 µM; in [6], 7.92 µM; in [9], greater than 100 µM; in series [12], 10.5 µM. The figures for the Ratio IC50 in the series listed under Homo sapiens [5] and in the series listed under Homo sapiens [8] were greater than 13 and greater than 4.8, respectively. The viability at 24 h, 10 µM in series [7] is 100%. Also, the inhibition in series [11] and in series [15] was 47% in each case. In addition, the viability at 24 h, 1 µM in series [14] is 84%. Further, the Ki is 0.0067 µM at Histamine H3 receptor (read-out: Ki) and less than 0.01 µM at Histamine H3 receptor (read-out: pKi (converted)).

For `C[n+]1ccc(-c2ccccc2)cc1`, in series [16], the viability at 24 h, 1000 µM is 1.8%.

Usually IC50 stands for the midpoint of a concentration-inhibition curve. A word on the inhibition: it is the share of the control response that was lost under treatment. The low end stands for little suppression, the high end for strong suppression.
